From publication PMC7456477, “Pharmacokinetic Study of Thirteen Ingredients after the Oral Administration of Flos Chrysanthemi Extract in Rats by UPLC-MS/MS” (BioMed Research International, 2020)

How the values were obtained:
[1] = Pharmacokinetic study in rat plasma after oral administration of Flos Chrysanthemi extract (UPLC-MS/MS); type: in vivo, Sprague-Dawley rats; details: rats, oral Flos Chrysanthemi extract 10 g/kg; for Detection in plasma over the sampling time: result in words; for AUC(0-inf) / Cmax / Tmax / half-life / AUC / k el: male, Sprague-Dawley, rat, plasma, n = 6; for AUC: read-out: AUC(0 − tn); for k el: read-out: Ke (converted)
Experimental: Six male Sprague-Dawley rats (250 ± 5 g) were purchased from Huafukang Bioscience Co., Inc. (Beijing, China). The rats were adapted to the facility for a week. Before the experiments, rats were fasted for 12 h, although drinking water was readily accessible. Flos Chrysanthemi extract was dissolved in CMC-Na aqueous solution and orally administered to the animals once at 10 g/kg. Blood samples (220 μL) were taken from the orbital venous plexus of rats at 0, 0.03, 0.08, 0.17, 0.25, 0.5, 1, 2, 4, 6, 8, 10, 12, and 24 h after extract administration. Blood samples were promptly centrifuged at 6000 rpm for 10 min, and plasma samples were collected. The obtained plasma was stored at -80°C until analysis. “Drug and Statistics 3.0” software (Medical College of Wannan, China) was used to calculate pharmacokinetic parameters. The animal protocol was approved by the Animal Ethics Committee of Tianjin University of Traditional Chinese Medicine (TCM-LAEC20190056).
Plasma samples from rats orally administered with Flos Chrysanthemi extract (10.0 g/kg) were analysed with UPLC-MS/MS. Plasma concentration-time curves are shown in Figure 3, and the primary pharmacokinetic parameters of each analyte are summarized in Table 6.

[2] = Stability of analytes in rat plasma (QC samples under four storage conditions); type: in vitro ADME; details: n = 6
Experimental: To study the stability of all compounds in rat plasma, low, medium, and high concentrations of QC samples were tested under the following test conditions: stored at an autosampler for 12 hours, stored at room temperature for 6 hours, put through three freeze/thaw cycles, and stored at -80°C for 14 days. Three QC concentrations were tested for each of the above conditions.
The stability of all 13 analytes during sample collection and processing was evaluated with the various storage conditions being tested on spiked plasma samples at three QC concentrations.

[3] = spiked concentration 1000 ng/mL
[4] = spiked concentration 4000 ng/mL

SMILES | Detection in plasma over the sampling time [1] | Measured concentration, -80°C for 14 days ([2]; spiked concentration 5 ng/mL) [ng/mL] | Measured concentration, Autosampler for 12 h ([2]; spiked concentration 5 ng/mL) [ng/mL] | Measured concentration, Room temperature for 6 h ([2]; spiked concentration 5 ng/mL) [ng/mL] | Measured concentration, Three freeze-thaw cycles ([2]; spiked concentration 5 ng/mL) [ng/mL] | Measured concentration, -80°C for 14 days ([2]; spiked concentration 50 ng/mL) [ng/mL] | Measured concentration, Autosampler for 12 h ([2]; spiked concentration 50 ng/mL) [ng/mL] | Measured concentration, Room temperature for 6 h ([2]; spiked concentration 50 ng/mL) [ng/mL] | Measured concentration, Three freeze-thaw cycles ([2]; spiked concentration 50 ng/mL) [ng/mL] | Measured concentration, -80°C for 14 days [2, 3] [ng/mL] | Measured concentration, Autosampler for 12 h [2, 3] [ng/mL] | Measured concentration, Room temperature for 6 h [2, 3] [ng/mL] | Measured concentration, Three freeze-thaw cycles [2, 3] [ng/mL] | Measured concentration, -80°C for 14 days ([2]; spiked concentration 200 ng/mL) [ng/mL] | AUC(0-inf) [1] [ng·h/mL] | Cmax [1] [ng/mL] | Tmax [1] [h] | half-life [1] [h] | AUC [1] [ng·h/mL] | k el [1] [s⁻¹] | further results
COc1ccc(-c2cc(=O)c3c(O)cc(O)cc3o2)cc1 [Acacetin] | detected only at the first few blood sampling points | 4.5 ± 0.1 | 5.3 ± 0.1 | 4.6 ± 0.1 | 5.8 ± 0.1 | 50.5 ± 0.7 | 47.8 ± 0.7 | 50.3 ± 0.8 | 50.2 ± 5.7 | 977.4 ± 57.9 | 1030.3 ± 4.9 | 1126.2 ± 9.5 | 1032.7 ± 5.6 | – | – | – | – | – | – | – | –
COc1ccc([C@@H]2CC(=O)c3c(O)cc(O[C@@H]4O[C@H](CO[C@@H]5O[C@@H](C)[C@H](O)[C@@H](O)[C@H]5O)[C@@H](O)[C@H](O)[C@H]4O)cc3O2)cc1O [Hesperidin] | detected only at the first few blood sampling points | – | – | – | – | – | – | – | – | – | – | – | – | 209.5 ± 2.3 | – | – | – | – | – | – | Measured concentration, -80°C for 14 days ([2]; spiked concentration 1 ng/mL): 1.1 ± 0.1 ng/mL; Measured concentration, Autosampler for 12 h ([2]; spiked concentration 1 ng/mL): 1.0 ± 0.1 ng/mL; Measured concentration, Room temperature for 6 h ([2]; spiked concentration 1 ng/mL): 1.1 ± 0.1 ng/mL; Measured concentration, Three freeze-thaw cycles ([2]; spiked concentration 1 ng/mL): 1.1 ± 0.1 ng/mL; Measured concentration, -80°C for 14 days ([2]; spiked concentration 10 ng/mL): 9.5 ± 0.2 ng/mL; Measured concentration, Autosampler for 12 h ([2]; spiked concentration 10 ng/mL): 8.8 ± 0.1 ng/mL; Measured concentration, Room temperature for 6 h ([2]; spiked concentration 10 ng/mL): 10.2 ± 0.4 ng/mL; Measured concentration, Three freeze-thaw cycles ([2]; spiked concentration 10 ng/mL): 10.0 ± 0.1 ng/mL; Measured concentration, Autosampler for 12 h ([2]; spiked concentration 200 ng/mL): 222.7 ± 2.0 ng/mL; Measured concentration, Room temperature for 6 h ([2]; spiked concentration 200 ng/mL): 213.7 ± 2.1 ng/mL; Measured concentration, Three freeze-thaw cycles ([2]; spiked concentration 200 ng/mL): 218.3 ± 0.7 ng/mL
O=c1cc(-c2ccc(O)c(O)c2)oc2cc(O)cc(O)c12 [Luteolin] | – | – | – | – | – | – | – | – | – | – | – | – | – | 195.1 ± 2.6 | 25100 ± 2230 | 2080 ± 307 | 0.5 | 8.89 ± 4.01 | 24200 ± 2110 | 2.78e-05 | Measured concentration, -80°C for 14 days ([2]; spiked concentration 20 ng/mL): 17.4 ± 0.3 ng/mL; Measured concentration, Autosampler for 12 h ([2]; spiked concentration 20 ng/mL): 21.3 ± 0.4 ng/mL; Measured concentration, Room temperature for 6 h ([2]; spiked concentration 20 ng/mL): 20.3 ± 0.3 ng/mL; Measured concentration, Three freeze-thaw cycles ([2]; spiked concentration 20 ng/mL): 23.2 ± 0.7 ng/mL; Measured concentration, Autosampler for 12 h ([2]; spiked concentration 200 ng/mL): 181.7 ± 0.8 ng/mL; Measured concentration, Room temperature for 6 h ([2]; spiked concentration 200 ng/mL): 193.5 ± 3.3 ng/mL; Measured concentration, Three freeze-thaw cycles ([2]; spiked concentration 200 ng/mL): 223.7 ± 1.5 ng/mL; Measured concentration, -80°C for 14 days [2, 4]: 4195.2 ± 15.1 ng/mL; Measured concentration, Autosampler for 12 h [2, 4]: 3656.3 ± 33.7 ng/mL; Measured concentration, Room temperature for 6 h [2, 4]: 4419.0 ± 9.2 ng/mL; Measured concentration, Three freeze-thaw cycles [2, 4]: 4475.1 ± 11.8 ng/mL
O=c1cc(-c2ccc(O)cc2)oc2cc(O)cc(O)c12 [Apigenin] | – | 5.2 ± 0.1 | 5.4 ± 0.2 | 4.9 ± 0.1 | 5.7 ± 0.1 | 49.3 ± 1.9 | 45.8 ± 1.3 | 49.3 ± 1.1 | 50.5 ± 0.4 | 1063.8 ± 62.8 | 987.0 ± 11.4 | 1112.4 ± 11.7 | 1086.4 ± 17.6 | – | 3090 ± 447 | 302 ± 87.1 | 0.5 | 11.1 ± 7.1 | 2900 ± 251 | 2.5e-05 | –
O=c1cc(-c2ccc(O)cc2)oc2cc(O[C@@H]3O[C@H](CO)[C@@H](O)[C@H](O)[C@H]3O)cc(O)c12 [Apigenin 7-glucoside] | – | 5.1 ± 0.2 | 4.3 ± 0.1 | 5.9 ± 0.1 | 5.6 ± 0.4 | 51.1 ± 0.4 | 44.5 ± 0.7 | 50.5 ± 1.0 | 53.7 ± 0.6 | 1108.3 ± 25.6 | 1077.6 ± 9.6 | 1086.7 ± 12.9 | 1112.8 ± 7.2 | – | 1470 ± 614 | 96.4 ± 24.8 | 0.69 ± 0.49 | 13.9 ± 10.2 | 1320 ± 489 | 6.94e-05 | –
